Results on 2 molecules are retold here after patent US11091486B2, “Process for the preparation of pyrazolo[1,5-a]pyrimidines and salts thereof” (Array BioPharma Inc., priority 2016, dated 2021).

Data set [1] in a line: In vitro metabolic stability in rat liver microsomes (Example 34). The format is in vitro ADME, Sprague Dawley rat. The note with it: 1 μM, predicted hepatic extraction ratio. As to the method: (§1) In vitro metabolic stabilities were studied at a concentration of 1 μM in the presence of liver microsomes and isolated hepatocytes.
(§2) A 100 mM potassium phosphate assay buffer solution (KPB) was prepared as follows. Both KH2PO4 and K2HPO4 were dissolved separately in reagent grade water resulting in final concentrations 100 mM. A 75:25 mixture v/v of K2HPO4:KH2PO4 was prepared and the pH of the solution was adjusted to 7.4 using diluted HCl or diluted NaOH solutions. A stock solution of test compound was prepared at 10 mM (active compound) in DMSO. The stock solution was diluted immediately before use to 2.5 μM using the KPB solution to create the working standard. All test compounds were completely soluble in DMSO by visual inspection at room temperature. […]
(§3) Data were acquired and peak areas were calculated for test compounds and the internal standard using Analyst 1.6.1 software (Sciex). […]
(§4) All calculations were performed using BioAssay Enterprise. The mean peak area ratios were calculated by averaging the peak area ratios (n=2) of test compound and the internal standard for each sample. Percent remaining was calculated by determining the ratio of the peak area ratio at each time point to the peak area ratio of the time-zero samples. The rate of loss of test compound (km) was determined by linear regression of—1n(f(t)) versus time. […] The t½ was determined dividing 1n(2) by km. […]

Data set [2] in a line: In vitro metabolic stability in human liver microsomes (Example 34). Type of data set: in vitro ADME. The conditions noted are these: 1 μM, predicted hepatic extraction ratio. As to the method: as §1, §2, §3, §4
A further data set has as its target T1, hERG (Homo sapiens, UniProt Q12809).
T1 construct: Charles River Laboratories International, Inc. (ChanTest assay service)
The data set can be described thus: hERG ChanTest Fast Patch assay. The format is cell-based. As to the method:
The MDR1 efflux protocol is disclosed in Example 35 hereinbelow. The hERG IC50 values were measured using the ChanTest Fast Patch assay, available from Charles River Laboratories International, Inc. (http://www.criver.com/products-services/drug-discovery/cap abilities/ion-channel/selectivity-profiling).
(Block of hERG is tested as a sign of cardiac risk.)

A further data set deals with T2, MDR1 (P-gp) (Homo sapiens, UniProt P08183).
T2 construct: expressed in transfected cells; host or cells: LLC-PK1 cells
The data set can be described thus: MDR1 efflux in MDR1 transfected LLC-PK1 cells (Example 35). Type of data set: in vitro ADME. The note with it: pig, MDR1 transfected LLC-PK1 monolayers, read-out: MDRI efflux ratio. As to the method:
Both LLC-PK1 and MDR1 transfected LLC-PK1 cells were cultured and plated according to manufacturer's recommendations with the exception that the passage media contained only 2% fetal bovine serum so as to extend passage time out to seven days.
Both positive and negative controls were used to assess functionality of P-gp efflux in the assay. Stock solutions for assay controls and the test article were prepared in DMSO for a final test concentrations of 10 μM. Final organic concentration in the assay was 1%. All dosing solutions contained 10 μM lucifer yellow to monitor LLC-PK1 cell monolayer integrity.
For the apical to basolateral determination (A to B), 75 μL of the test article in transport buffer were added to the apical side of the individual transwells and 250 μL of basolateral media, without compound or lucifer yellow, were added to each well. […] The plates were read using a Molecular Devices (Sunnyvale, Calif.) Gemini Fluorometer to evaluate the lucifer yellow concentrations at excitation/emission wavelengths of 425/535 nm. […] The plates were sealed and the contents of each well analyzed by LC-MS/MS. The compound concentrations were determined from the ratio of the peak areas of the compound to the internal standard (labetalol) in comparison to the dosing solution.
Permeability (Papp) was calculated in BioAssay v. […]

T2 sequence (P08183 whole entry): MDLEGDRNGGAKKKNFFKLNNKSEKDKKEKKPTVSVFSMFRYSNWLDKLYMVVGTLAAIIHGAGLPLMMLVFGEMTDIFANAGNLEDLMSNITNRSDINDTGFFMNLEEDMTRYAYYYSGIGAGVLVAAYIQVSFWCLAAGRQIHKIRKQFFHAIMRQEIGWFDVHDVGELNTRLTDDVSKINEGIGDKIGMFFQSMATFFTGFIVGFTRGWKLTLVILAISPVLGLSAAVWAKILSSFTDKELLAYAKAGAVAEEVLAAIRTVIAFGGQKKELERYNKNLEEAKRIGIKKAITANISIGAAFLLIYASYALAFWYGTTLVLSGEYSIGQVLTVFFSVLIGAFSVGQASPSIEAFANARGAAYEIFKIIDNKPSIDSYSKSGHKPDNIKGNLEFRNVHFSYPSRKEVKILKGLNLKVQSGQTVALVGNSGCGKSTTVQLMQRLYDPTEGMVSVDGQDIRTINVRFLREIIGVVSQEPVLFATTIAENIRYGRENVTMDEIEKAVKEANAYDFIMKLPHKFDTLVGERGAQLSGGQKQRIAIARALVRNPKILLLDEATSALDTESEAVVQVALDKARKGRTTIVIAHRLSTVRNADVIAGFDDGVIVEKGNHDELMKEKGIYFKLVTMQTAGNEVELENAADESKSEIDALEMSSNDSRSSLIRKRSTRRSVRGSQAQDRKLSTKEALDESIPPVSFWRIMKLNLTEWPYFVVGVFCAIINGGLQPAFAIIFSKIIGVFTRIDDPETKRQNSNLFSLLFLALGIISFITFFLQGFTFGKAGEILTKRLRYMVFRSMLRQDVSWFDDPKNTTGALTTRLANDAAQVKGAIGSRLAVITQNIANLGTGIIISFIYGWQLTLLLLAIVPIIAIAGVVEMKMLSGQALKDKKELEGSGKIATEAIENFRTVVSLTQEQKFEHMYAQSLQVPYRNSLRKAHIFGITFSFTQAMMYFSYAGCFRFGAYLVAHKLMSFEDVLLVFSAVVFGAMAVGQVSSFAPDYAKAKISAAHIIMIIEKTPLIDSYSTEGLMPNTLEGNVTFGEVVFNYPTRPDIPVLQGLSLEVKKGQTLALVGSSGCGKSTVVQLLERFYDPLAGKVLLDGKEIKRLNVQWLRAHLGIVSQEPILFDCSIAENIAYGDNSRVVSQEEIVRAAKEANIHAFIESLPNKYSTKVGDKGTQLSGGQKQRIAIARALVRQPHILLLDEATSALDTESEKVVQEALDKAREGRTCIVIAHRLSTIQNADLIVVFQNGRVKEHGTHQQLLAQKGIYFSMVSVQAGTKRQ
T1 sequence (Q12809 whole entry): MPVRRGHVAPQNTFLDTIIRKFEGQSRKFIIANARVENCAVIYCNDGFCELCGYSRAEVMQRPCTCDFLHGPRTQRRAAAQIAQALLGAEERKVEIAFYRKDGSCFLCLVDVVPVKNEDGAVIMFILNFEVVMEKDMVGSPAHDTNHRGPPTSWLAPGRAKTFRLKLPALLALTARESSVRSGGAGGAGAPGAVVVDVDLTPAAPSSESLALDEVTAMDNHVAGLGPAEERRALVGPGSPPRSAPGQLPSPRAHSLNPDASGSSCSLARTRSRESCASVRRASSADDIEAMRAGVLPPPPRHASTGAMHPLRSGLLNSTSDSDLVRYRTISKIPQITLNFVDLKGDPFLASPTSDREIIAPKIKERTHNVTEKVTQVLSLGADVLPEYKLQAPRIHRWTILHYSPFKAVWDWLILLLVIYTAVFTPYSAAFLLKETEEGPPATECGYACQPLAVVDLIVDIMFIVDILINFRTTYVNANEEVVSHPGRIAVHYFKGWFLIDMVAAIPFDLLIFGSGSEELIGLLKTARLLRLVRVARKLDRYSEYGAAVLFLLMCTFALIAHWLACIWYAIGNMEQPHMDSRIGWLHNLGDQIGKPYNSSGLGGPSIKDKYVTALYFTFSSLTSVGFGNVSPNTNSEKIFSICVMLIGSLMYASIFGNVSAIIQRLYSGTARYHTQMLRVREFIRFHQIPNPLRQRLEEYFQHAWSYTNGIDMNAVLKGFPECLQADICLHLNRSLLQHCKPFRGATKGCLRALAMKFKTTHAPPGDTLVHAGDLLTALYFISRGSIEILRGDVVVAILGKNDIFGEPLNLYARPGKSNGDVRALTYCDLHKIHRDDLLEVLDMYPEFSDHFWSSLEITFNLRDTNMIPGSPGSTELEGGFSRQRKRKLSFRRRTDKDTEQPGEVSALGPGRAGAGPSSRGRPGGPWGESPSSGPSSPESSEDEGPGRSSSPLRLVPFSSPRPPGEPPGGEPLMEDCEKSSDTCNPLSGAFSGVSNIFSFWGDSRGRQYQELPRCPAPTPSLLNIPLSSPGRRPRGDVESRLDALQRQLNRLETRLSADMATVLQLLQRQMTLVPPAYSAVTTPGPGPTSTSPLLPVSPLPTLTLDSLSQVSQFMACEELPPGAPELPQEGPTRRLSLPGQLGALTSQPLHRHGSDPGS

Usually IC50 stands for the concentration that gives 50% inhibition. A lower IC50 goes with greater potency. `C[C@@H]1CCc2ncc(F)cc2[C@H]2CCCN2c2ccn3ncc(c3n2)C(=O)N1` [Formula I]: in data set [1], the “Rat Microsome Clearance (% ER)” value is reported as 51 % ER. Further, the “Human Microsome Clearance (% ER)” value in data set [2] is on record as 79 % ER. At hERG, the IC50 is 27 µM. The efflux ratio at 2 h, 10 μM at MDR1 (P-gp) is 14.
For `C[C@H]1CCc2ncc(F)cc2[C@H]2CCCN2c2ccn3ncc(c3n2)C(=O)N1` [formula I′], the “Rat Microsome Clearance (% ER)” value in data set [1] was 77 % ER. Besides, the “Human Microsome Clearance (% ER)” value in data set [2] is 92 % ER. Moreover, inhibition against hERG was half-maximal at 9 µM (IC50). In addition, on MDR1 (P-gp), the efflux ratio at 2 h, 10 μM was 5.
